For the test, the target named is T1, human SK3 channel (hKCa2.3) (Homo sapiens, UniProt Q9UGI6).
T1 construct: expressed in transfected cells
As to the kind of experiment: Automated patch clamping (QPatch 16 HT whole-cell recordings). As to conditions: HEK-293 cells stably expressing hKCa2.3; currents measured at −80 mV; normalized to N-methyl bicuculline; read-out: IC50 in the Automated patch clamping assay (SK3 channel inhibition). The class given is cell-based. As to the method:
Automated whole cell patch-clamp recordings were performed using a QPatch 16 HT system and single-hole Qplates (Sophion, Denmark) on HEK-293 cells stably expressing the human SK3 channel (hKCa2.3). Cells were cultured and prepared for experiments using normal cell culturing procedures. A total of 4-5 million cells were used per experiment. The Qpatch automatically generates giga sealing, whole-cell formation, compound application and recording of current. hKCa2.3 currents were recorded in symmetrical K^+ solutions. The intracellular/pipette solution contained 154 mM KCl, 10 mM HEPES and 10 mM EGTA. CaCl2 is added to give calculated free concentrations of Ca^2+ of 0.4 μM and MgCl2 is added to give a free concentration of 1 mM. In order to maintain a total [K^+] of 156 mM (corresponding to the concentration in the extracellular ringer) a fixed amount of KOH (15 mM) is added, thereafter pH is adjusted with HCl to pH=7.2. Expected osmolarity: 275 mOsm. Sucrose was added to a final osmolarity around 295 mosm. The extracellular solution consisted of (in mM): CaCl2 0.1, MgCl2 3, KCl 150, HEPES 10 and glucose 10, pH=7.4 adjusted with KOH. Osmolarity between 285-295 mosm. The cells were held at 0 mV and hKCa2.3 currents were elicited by a linear voltage ramp from −80 mV to +80 mV (200 ms in duration) applied every 5th second.
The compound application protocol consisted of 12 recording periods lasting 200 s: 1) Baseline recordings in extracellular solution; 2) Application of the positive control N-methyl bicuculline (100 μM), which is characterized by full efficacy, fast on- and off-rate; 3-4) Wash-out; 5-10) Increasing concentrations of test compound to establish an IC50 value; 11-12) Wash-out; 13) positive control with compound NS8593 (N-[(1R)-1,2,3,4-tetrahydro-1-naphthalenyl]-1H-benzimidazol-2-amine) (1 μM) or with N-methyl bicuculline (100 μM). Data were sampled at 10 kHz, 4th order Bessel filter, cut-off frequency 3 kHz. Currents were compensated for run-down. Potency was quantified as the concentration needed to inhibit half of the SK channel activity and reported as an IC50 value.
All effects of compounds of the present invention as tested were normalized to the observed inhibitory effect of N-methyl bicuculline. Currents were measured at −80 mV.
As for `Cc1nnc(NCc2cccc3[nH]c(NC(C)(CO)c4ccc(F)c(Cl)c4)nc23)o1` (centres unmarked) [Example 16, 2-(3-chloro-4-fluorophenyl)-2-((4-(((5-methyl-1,3,4-oxadiazol-2-yl)amino)methyl)-1H-benzo[d]imidazol-2-yl)amino) propan-1-ol], the IC50 was under 30 µM.
For `Cc1noc(NCc2cccc3[nH]c(NC(C)(CO)c4ccc(F)c(Cl)c4)nc23)n1` (centres unmarked) [Example 17, 2-(3-chloro-4-fluorophenyl)-2-[(4-{[(3-methyl-1,2,4-oxadiazol-5-yl)amino]methyl}-1H-1,3-benzodiazol-2-yl)amino]propan-1-ol], the IC50 is under 30 µM.
For the compound `CC(CO)(Nc1nc2c(Cn3ccoc3=N)cccc2[nH]1)c1cccc(C(F)(F)F)c1` (centres unmarked) [Example 18, 2-({4-[(2-imino-2,3-dihydro-1,3-oxazol-3-yl)methyl]-1H-1,3-benzodiazol-2-yl}amino)-2-[3-(trifluoromethyl)phenyl]propan-1-ol], the IC50 is under 1 µM.
For `CC(CO)(Nc1nc2c(Cn3ccoc3=N)cccc2[nH]1)c1ccc(Cl)c(Cl)c1` (centres unmarked) [Example 19, 2-(3,4-dichlorophenyl)-2-({4-[(2-imino-2,3-dihydro-1,3-oxazol-3-yl)methyl]-1H-1,3-benzodiazol-2-yl}amino)propan-1-ol] the value was under 1 µM.
For `Cc1oc(=N)n(Cc2cccc3[nH]c(NC(C)(CO)c4ccc(F)c(Cl)c4)nc23)c1C` (centres unmarked) [Example 20, 2-(3-chloro-4-fluorophenyl)-2-({4-[(2-imino-4,5-dimethyl-2,3-dihydro-1,3-oxazol-3-yl)methyl]-1H-1,3-benzodiazol-2-yl}amino)propan-1-ol], the IC50 was under 1 µM.
Turning to `Cn1nccc1NCc1cccc2[nH]c(NC(C)(CO)c3cccc(C(F)(F)F)c3)nc12` (centres unmarked) [Example 21, 2-((4-(((1-methyl-1H-pyrazol-5-yl)amino)methyl)-1H-benzo[d]imidazol-2-yl)amino)-2-(3-(trifluoromethyl)phenyl) propan-1-ol], the IC50 was under 30 µM.
On to `Cn1ccnc1NCc1cccc2[nH]c(NC(C)(CO)c3cccc(C(F)(F)F)c3)nc12` (centres unmarked) [Example 22, 2-((4-(((1-methyl-1H-imidazol-2-yl)amino)methyl)-1H-benzo[d]imidazol-2-yl)amino)-2-(3-(trifluoromethyl)phenyl)propan-1-ol], for which the 50% inhibitory concentration (IC50) is under 30 µM.
For `Cc1coc(=N)n1Cc1cccc2[nH]c(NC(C)(CO)c3cccc(C(F)(F)F)c3)nc12` (centres unmarked) [Example 23, 2-({4-[(2-imino-4-methyl-2,3-dihydro-1,3-oxazol-3-yl)methyl]-1H-1,3-benzodiazol-2-yl}amino)-2-[3-(trifluoromethyl)phenyl]propan-1-ol] the value was under 1 µM; for `Cc1cn(Cc2cccc3[nH]c(NC(C)(CO)c4cccc(C(F)(F)F)c4)nc23)c(=N)o1` (centres unmarked) [Example 24, 2-({4-[(2-imino-5-methyl-2,3-dihydro-1,3-oxazol-3-yl)methyl]-1H-1,3-benzodiazol-2-yl}amino)-2-[3-(trifluoromethyl)phenyl]propan-1-ol], under 1 µM; for `CCC(CO)(Nc1nc2c(Cn3ccoc3=N)cccc2[nH]1)c1cccc(C(F)(F)F)c1` (centres unmarked) [Example 25, 2-({4-[(2-imino-2,3-dihydro-1,3-oxazol-3-yl)methyl]-1H-1,3-benzodiazol-2-yl}amino)-2-[3-(trifluoromethyl)phenyl]butan-1-ol], under 30 µM.
As to `CC(CCO)(Nc1nc2c(Cn3ccoc3=N)cccc2[nH]1)c1cccc(C(F)(F)F)c1` (centres unmarked) [Example 26, 3-({4-[(2-imino-2,3-dihydro-1,3-oxazol-3-yl)methyl]-1H-1,3-benzodiazol-2-yl}amino)-3-[3-(trifluoromethyl)phenyl]butan-1-ol], the half-maximal inhibitory concentration (IC50) is under 30 µM.
Turning to `CC(CO)(Nc1nc2c(Cn3ccoc3=N)cccc2[nH]1)c1cccc(OC(F)(F)F)c1` (centres unmarked) [Example 27, 2-({4-[(2-imino-2,3-dihydro-1,3-oxazol-3-yl)methyl]-1H-1,3-benzodiazol-2-yl}amino)-2-[3-(trifluoromethoxy)phenyl]propan-1-ol], the half-maximal inhibitory concentration (IC50) was under 1 µM.
As for `Cc1oc(=N)n(Cc2cccc3[nH]c(NC(C)(CO)c4cccc(C(F)(F)F)c4)nc23)c1C` (centres unmarked) [Example 28, 2-({4-[(2-imino-4,5-dimethyl-2,3-dihydro-1,3-oxazol-3-yl)methyl]-1H-1,3-benzodiazol-2-yl}amino)-2-[3-(trifluoromethyl)phenyl]-propan-1-ol], the 50% inhibitory concentration (IC50) is under 30 µM.
Take `Cc1coc(=N)n1Cc1cccc2[nH]c(NC(C)(CO)c3cccc(OC(F)(F)F)c3)nc12` (centres unmarked) [Example 29, 2-({4-[(2-imino-4-methyl-2,3-dihydro-1,3-oxazol-3-yl)methyl]-1H-1,3-benzodiazol-2-yl}amino)-2-[3-(trifluoromethoxy)phenyl]propan-1-ol]: the half-inhibitory concentration (IC50) was under 1 µM.
For `Cc1cn(Cc2cccc3[nH]c(NC(C)(CO)c4cccc(OC(F)(F)F)c4)nc23)c(=N)o1` (centres unmarked) [Example 30, 2-({4-[(2-imino-5-methyl-2,3-dihydro-1,3-oxazol-3-yl)methyl]-1H-1,3-benzodiazol-2-yl}amino)-2-[3-(trifluoromethoxy)phenyl]-propan-1-ol] the value was under 1 µM; for `CC(Nc1ncco1)c1cccc2[nH]c(NC(C)(CO)c3ccc(F)c(Cl)c3)nc12` (centres unmarked) [Example 31, 2-(3-chloro-4-fluorophenyl)-2-[(4-{1-[(1,3-oxazol-2-yl)amino]ethyl}-1H-1,3-benzodiazol-2-yl)amino]propan-1-ol], under 30 µM.
Take `CC(CO)(Nc1nc2c(Cn3ccsc3=N)cccc2[nH]1)c1ccc(F)c(Cl)c1` (centres unmarked) [Example 32, 2-(3-chloro-4-fluorophenyl)-2-({4-[(2-imino-2,3-dihydro-1,3-thiazol-3-yl)methyl]-1H-1,3-benzodiazol-2-yl}amino)propan-1-ol]: the IC50 is under 1 µM.
As to `CC(CO)(Nc1nc2c(Cn3cc[nH]c3=O)cccc2[nH]1)c1ccc(F)c(Cl)c1` (centres unmarked) [Example 33, 1-[(2-{[2-(3-chloro-4-fluorophenyl)-1-hydroxypropan-2-yl]amino}-1H-1,3-benzodiazol-4-yl)methyl]-2,3-dihydro-1H-imidazol-2-one], the IC50 is under 30 µM.
To `CC(CO)(Nc1nc2c(CN3CCNC3=O)cccc2[nH]1)c1ccc(F)c(Cl)c1` (centres unmarked) [Example 34, 1-[(2-{[2-(3-chloro-4-fluorophenyl)-1-hydroxypropan-2-yl]amino}-1H-1,3-benzodiazol-4-yl)methyl]imidazolidin-2-one] belongs under 30 µM.
For `CN1CCN(Cc2cccc3[nH]c(NC(C)(CO)c4ccc(F)c(Cl)c4)nc23)C1=O` (centres unmarked) [Example 35, 1-[(2-{[2-(3-chloro-4-fluorophenyl)-1-hydroxypropan-2-yl]amino}-1H-1,3-benzodiazol-4-yl)methyl]-3-methylimidazolidin-2-one] the value was under 30 µM; for `CC(CO)(Nc1nc2c(CN3CCSC3=O)cccc2[nH]1)c1ccc(F)c(Cl)c1` (centres unmarked) [Example 36, 3-[(2-{[2-(3-chloro-4-fluorophenyl)-1-hydroxypropan-2-yl]amino}-1H-1,3-benzodiazol-4-yl)methyl]-1,3-thiazolidin-2-one], under 30 µM.
As for `CC(CO)(Nc1nc2c(CN3CCCC3=O)cccc2[nH]1)c1ccc(F)c(Cl)c1` (centres unmarked) [Example 37, 1-[(2-{[2-(3-chloro-4-fluorophenyl)-1-hydroxypropan-2-yl]amino}-1H-1,3-benzodiazol-4-yl)methyl]pyrrolidin-2-one], the IC50 was under 30 µM.
`CC(CO)(Nc1nc2c(CNc3ncco3)cccc2[nH]1)c1ccc(F)c(Cl)c1` (centres unmarked) [Example 38, 2-(3-chloro-4-fluorophenyl)-2-[(4-{[(1,3-oxazol-2-yl)amino]methyl}-1H-1,3-benzodiazol-2-yl)amino]propan-1-ol]: the 50% inhibitory concentration (IC50) is under 30 µM.

Values taken from patent US11945811B2, “Potassium channel inhibitors” (ACESION PHARMA APS, priority 2021, dated 2024).
